Experimental data: BindingDB's records for doi:10.1002/cbic.201600513 (University of Florida, 2017)

Key:
Carbonic anhydrase 12 = Carbonic anhydrase 12 (Homo sapiens, UniProt O43570); assay: CA Inhibition Assay
Excerpt: (§1) CA-catalyzed CO2 hydration activity methods were published previously by Cornelio et al. as part of a larger series of benzenesulfonamide-based inhibitors with aryl substitutions in the para position of the benzene ring.

Carbonic anhydrase 2 = Carbonic anhydrase 2 (Homo sapiens, UniProt P00918); assay: CA Inhibition Assay
Excerpt: as §1

Carbonic anhydrase 12, sequence (O43570 whole entry): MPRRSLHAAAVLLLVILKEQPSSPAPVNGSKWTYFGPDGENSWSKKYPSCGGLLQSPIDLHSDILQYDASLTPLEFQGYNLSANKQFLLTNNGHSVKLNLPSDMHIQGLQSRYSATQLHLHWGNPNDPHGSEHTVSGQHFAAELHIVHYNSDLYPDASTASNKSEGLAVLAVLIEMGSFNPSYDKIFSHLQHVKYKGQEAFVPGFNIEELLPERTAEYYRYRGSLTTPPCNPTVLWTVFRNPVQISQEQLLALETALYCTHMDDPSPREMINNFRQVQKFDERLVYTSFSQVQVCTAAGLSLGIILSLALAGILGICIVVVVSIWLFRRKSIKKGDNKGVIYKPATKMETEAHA

SMILES: NS(=O)(=O)c1ccc(-c2cccc(C=O)c2)cc1 [4-(3-formylphenyl)-benzenesulfonamide (4e)]
- Ki (Carbonic anhydrase 12): 0.6 nM
- Ki (Carbonic anhydrase 2): 2 nM

SMILES: NS(=O)(=O)c1ccc(-c2ccccc2)cc1 [4-(phenyl)-bezenesulfonamide (4a)]
- Ki (Carbonic anhydrase 2): 0.8 nM
